Patent US6737383B1, “Herbicidal oxadiazolidines” (priority 1999, dated 2004)

What was measured:
bedstraw = test: Test B pre/postemergence bedstraw; format: in vivo, Galium aparine
Procedure, shortened: (§1)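 Herbicidal effect was estimated by eye on a ten-point control scale after plants spent twelve to sixteen days in a greenhouse following soil or foliar treatment. Foliar sprays targeted plants at one to four leaves; all doses were formulated in a non-phytotoxic solvent with surfactant.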

corn = test: Test B pre/postemergence corn; format: in vivo, Zea mays
Procedure, shortened: as §1

smallflower flatsedge = test: Test B flood test smallflower flatsedge; format: in vivo, Cyperus difformis
Procedure, shortened: (§2)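 Plants were grown to the 2-leaf stage before treatment with test chemical, then held in a greenhouse for twelve to sixteen days. Injury was visually rated against untreated controls on a 0–10 scale, where 0 is no effect and 10 is complete control.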

rape = test: Test B pre/postemergence rape; format: in vivo, Brassica napus
Procedure, shortened: as §1

purple nutsedge = test: Test B pre/postemergence purple nutsedge; format: in vivo, Cyperus rotundus
Procedure, shortened: as §1

crabgrass = test: Test B pre/postemergence crabgrass; format: in vivo, Digitaria sanguinalis
Procedure, shortened: as §1

duck salad = test: Test B flood test duck salad; format: in vivo, Heteranthera limosa
Procedure, shortened: as §2

velvetleaf = test: Test B pre/postemergence velvetleaf; format: in vivo, Abutilon theophrasti
Procedure, shortened: as §1

bamyardgrass = test: Test B flood test barnyardgrass; format: in vivo, Echinochloa crus-galli
Procedure, shortened: as §2

sugar beet = test: Test B pre/postemergence sugar beet; format: in vivo, Beta vulgaris
Procedure, shortened: as §1

surinam grass = test: Test B pre/postemergence surinam grass; format: in vivo, Brachiaria decumbens
Procedure, shortened: as §1

soybean = test: Test B pre/postemergence soybean; format: in vivo, Glycine max
Procedure, shortened: as §1

wild oat = test: Test B pre/postemergence wild oat; format: in vivo, Avena fatua
Procedure, shortened: as §1

wheat = test: Test B pre/postemergence wheat; format: in vivo, Triticum aestivum
Procedure, shortened: as §1

rice = test: Test B flood test rice; format: in vivo, Oryza sativa
Procedure, shortened: as §2

blackgrass = test: Test B pre/postemergence blackgrass; format: in vivo, Alopecurus myosuroides
Procedure, shortened: as §1

pigweed = test: Test B pre/postemergence pigweed; format: in vivo, Amaranthus retroflexus
Procedure, shortened: as §1

giant foxtail = test: Test B pre/postemergence giant foxtail; format: in vivo, Setaria faberii
Procedure, shortened: as §1

cocklebur = test: Test B pre/postemergence cocklebur; format: in vivo, Xanthium strumarium
Procedure, shortened: as §1

morningglory = test: Test B pre/postemergence morningglory; format: in vivo, Ipomoea hederacea
Procedure, shortened: as §1

[1] = Preemergence, Rate 31 g/ha, visual rating, scale 0 to 10 (0 no effect, 10 complete control)
[2] = Preemergence, Rate 62 g/ha, scale of 0 to 10 where 0 is no effect and 10 is complete control
[3] = Preemergence, Rate 250 g/ha, scale of 0 to 10 where 0 is no effect and 10 is complete control
[4] = Rate 31 g/ha, Postemergence, scale 0 to 10
[5] = Rate 62 g/ha, Postemergence, scale of 0 to 10 where 0 is no effect and 10 is complete control
[6] = Rate 125 g/ha, Postemergence, scale 0 to 10
[7] = Rate 125 g/ha, Preemergence, scale of 0 to 10 where 0 is no effect and 10 is complete control
[8] = Rate 62 g/ha, headed Pre-emergence (flood test species), scale 0 to 10 (0 no effect, 10 complete control)
[9] = Rate 250 g/ha, Pre-emergence, flood-test species, scale 0 to 10, 0 is no effect, 10 is complete control

In the case of `CC(C)N(C(=O)n1oc(=O)n(CC#C[Si](C)(C)C)c1=O)c1ccc(F)cc1` [Compound 213], the “Bedstraw plant response rating” value (bedstraw; [1]) is reported as 0, the “Bedstraw plant response rating” value (bedstraw; [2]) is reported as 0 and the “Bedstraw plant response rating” value (bedstraw; [3]) is reported as 0. For the same compound, the “Bedstraw plant response rating” value (bedstraw; [4]) was 0, the “Bedstraw plant response rating” value (bedstraw; [5]) was 0 and the “Bedstraw plant response rating” value (bedstraw; [6]) was 3. For the same compound, the “Bedstraw plant response rating” value (bedstraw; [7]) was 0, the “Plant response rating (0 to 10; 0 is no effect, 10 is complete control), Bedstraw” value (bedstraw; Rate 250 g/ha, Postemergence) was 3 and the “Corn plant response rating” value (corn; [1]) was 0. The “Corn plant response rating” value (corn; [2]) was 0, the “Corn plant response rating” value (corn; [3]) was 0 and the “Corn plant response rating” value (corn; [4]) was 0. The “Corn plant response rating” value (corn; [5]) was 0, the “Corn plant response rating” value (corn; [6]) was 0 and the “Corn plant response rating” value (corn; [7]) was 0. For the same compound, the “Plant response rating (0 to 10; 0 is no effect, 10 is complete control), Corn” value (corn; Rate 250 g/ha, Postemergence) was 0, the “S. Flatsedge plant response rating” value (smallflower flatsedge; [8]) was 0 and the “S. Flatsedge plant response rating” value (smallflower flatsedge; [9]) was 0. For the same compound, the “Rape plant response rating” value (rape; [1]) was 0, the “Rape plant response rating” value (rape; [2]) was 0 and the “Rape plant response rating” value (rape; [3]) was 0. For the same compound, the “Rape plant response rating” value (rape; [4]) was 0, the “Rape plant response rating” value (rape; [5]) was 0 and the “Rape plant response rating” value (rape; [6]) was 2. For the same compound, the “Rape plant response rating” value (rape; [7]) was 0, the “Plant response rating (0 to 10; 0 is no effect, 10 is complete control), Rape” value (rape; Rate 250 g/ha, Postemergence) was 3 and the “Nutsedge plant response rating” value (purple nutsedge; [2]) was 0. The “Nutsedge plant response rating” value (purple nutsedge; [4]) was 0, the “Nutsedge plant response rating” value (purple nutsedge; [5]) was 0 and the “Nutsedge plant response rating” value (purple nutsedge; [6]) was 0. For the same compound, the “Nutsedge plant response rating” value (purple nutsedge; [7]) was 0, the “Plant response rating (0 to 10; 0 is no effect, 10 is complete control), Nutsedge” value (purple nutsedge; Rate 250 g/ha, Postemergence) was 0 and the “Crabgrass plant response rating” value (crabgrass; [1]) was 0. For the same compound, the “Crabgrass plant response rating” value (crabgrass; [2]) was 0, the “Crabgrass plant response rating” value (crabgrass; [3]) was 3 and the “Crabgrass plant response rating” value (crabgrass; [4]) was 0. The “Crabgrass plant response rating” value (crabgrass; [5]) was 0, the “Crabgrass plant response rating” value (crabgrass; [6]) was 0 and the “Crabgrass plant response rating” value (crabgrass; [7]) was 0. The “Plant response rating (0 to 10; 0 is no effect, 10 is complete control), Crabgrass” value (crabgrass; Rate 250 g/ha, Postemergence) was 2, the “Ducksalad plant response rating” value (duck salad; [8]) was 0 and the “Ducksalad plant response rating” value (duck salad; [9]) was 0. For the same compound, the “Velvetleaf plant response rating” value (velvetleaf; [1]) was 0, the “Velvetleaf plant response rating” value (velvetleaf; [2]) was 0 and the “Velvetleaf plant response rating” value (velvetleaf; [3]) was 0. The “Velvetleaf plant response rating” value (velvetleaf; [5]) was 0, the “Velvetleaf plant response rating” value (velvetleaf; [6]) was 0 and the “Velvetleaf plant response rating” value (velvetleaf; [7]) was 0. For the same compound, the “Plant response rating (0 to 10; 0 is no effect, 10 is complete control), Velvetleaf” value (velvetleaf; Rate 250 g/ha, Postemergence) was 0, the “Barnyardgrass plant response rating” value (bamyardgrass; [8]) was 0 and the “Barnyardgrass plant response rating” value (bamyardgrass; [9]) was 0. The “Sugarbeets plant response rating” value (sugar beet; [1]) was 0, the “Sugarbeets plant response rating” value (sugar beet; [2]) was 0 and the “Sugarbeets plant response rating” value (sugar beet; [3]) was 0. For the same compound, the “Sugarbeets plant response rating” value (sugar beet; [5]) was 3, the “Sugarbeets plant response rating” value (sugar beet; [6]) was 3 and the “Sugarbeets plant response rating” value (sugar beet; [7]) was 0. The “Plant response rating (0 to 10; 0 is no effect, 10 is complete control), Sugarbeets” value (sugar beet; Rate 250 g/ha, Postemergence) was 4, the “B. signalgrass plant response rating” value (surinam grass; [1]) was 0 and the “B. signalgrass plant response rating” value (surinam grass; [2]) was 0. The “B. signalgrass plant response rating” value (surinam grass; Preemergence, Rate 250 g/ha, scale 0 to 10, 0 is no effect, 10 is complete control) was 0, the “B. signalgrass plant response rating” value (surinam grass; [4]) was 0 and the “B. signalgrass plant response rating” value (surinam grass; [5]) was 0. For the same compound, the “B. signalgrass plant response rating” value (surinam grass; Rate 125 g/ha, Postemergence, scale 0 (no effect) to 10 (complete control)) was 0, the “B. signalgrass plant response rating” value (surinam grass; [7]) was 0 and the “Plant response rating (0 to 10; 0 is no effect, 10 is complete control), B. signalgrass” value (surinam grass; Rate 250 g/ha, Postemergence) was 2. The “Soybean plant response rating” value (soybean; [1]) was 0, the “Soybean plant response rating” value (soybean; [2]) was 0 and the “Soybean plant response rating” value (soybean; [3]) was 0. For the same compound, the “Soybean plant response rating” value (soybean; [5]) was 1, the “Soybean plant response rating” value (soybean; [6]) was 1 and the “Soybean plant response rating” value (soybean; [7]) was 0. The “Plant response rating (0 to 10; 0 is no effect, 10 is complete control), Soybean” value (soybean; Rate 250 g/ha, Postemergence) was 2, the “Wild oats plant response rating” value (wild oat; [1]) was 0 and the “Wild oats plant response rating” value (wild oat; [2]) was 0. For the same compound, the “Wild oats plant response rating” value (wild oat; [3]) was 0, the “Wild oats plant response rating” value (wild oat; [5]) was 0 and the “Wild oats plant response rating” value (wild oat; [6]) was 0. For the same compound, the “Wild oats plant response rating” value (wild oat; [7]) was 0, the “Plant response rating (0 to 10; 0 is no effect, 10 is complete control), Wild oats” value (wild oat; Rate 250 g/ha, Postemergence) was 2 and the “Wheat plant response rating” value (wheat; [1]) was 0. For the same compound, the “Wheat plant response rating” value (wheat; [2]) was 0, the “Wheat plant response rating” value (wheat; [3]) was 0 and the “Wheat plant response rating” value (wheat; [5]) was 0. For the same compound, the “Wheat plant response rating” value (wheat; [6]) was 0, the “Wheat plant response rating” value (wheat; [7]) was 0 and the “Plant response rating (0 to 10; 0 is no effect, 10 is complete control), Wheat” value (wheat; Rate 250 g/ha, Postemergence) was 2. The “Rice plant response rating” value (rice; [8]) was 0, the “Rice plant response rating” value (rice; [9]) was 0 and the “Blackgrass plant response rating” value (blackgrass; [1]) was 0. For the same compound, the “Blackgrass plant response rating” value (blackgrass; [2]) was 0, the “Blackgrass plant response rating” value (blackgrass; [3]) was 0 and the “Blackgrass plant response rating” value (blackgrass; [4]) was 0. For the same compound, the “Blackgrass plant response rating” value (blackgrass; [5]) was 0, the “Blackgrass plant response rating” value (blackgrass; [6]) was 0 and the “Blackgrass plant response rating” value (blackgrass; [7]) was 0. The “Plant response rating (0 to 10; 0 is no effect, 10 is complete control), Blackgrass” value (blackgrass; Rate 250 g/ha, Postemergence) was 2, the “Redroot pigweed plant response rating” value (pigweed; [1]) was 0 and the “Redroot pigweed plant response rating” value (pigweed; [2]) was 0. For the same compound, the “Redroot pigweed plant response rating” value (pigweed; [3]) was 5, the “Redroot pigweed plant response rating” value (pigweed; [4]) was 0 and the “Redroot pigweed plant response rating” value (pigweed; [5]) was 5. For the same compound, the “Redroot pigweed plant response rating” value (pigweed; [6]) was 7, the “Redroot pigweed plant response rating” value (pigweed; [7]) was 4 and the “Plant response rating (0 to 10; 0 is no effect, 10 is complete control), Redroot pigweed” value (pigweed; Rate 250 g/ha, Postemergence) was 7. The “Giant foxtail plant response rating” value (giant foxtail; [1]) was 0, the “Giant foxtail plant response rating” value (giant foxtail; [2]) was 0 and the “Giant foxtail plant response rating” value (giant foxtail; [3]) was 4. For the same compound, the “Giant foxtail plant response rating” value (giant foxtail; [4]) was 0, the “Giant foxtail plant response rating” value (giant foxtail; [5]) was 0 and the “Giant foxtail plant response rating” value (giant foxtail; [6]) was 0. For the same compound, the “Giant foxtail plant response rating” value (giant foxtail; [7]) was 2, the “Plant response rating (0 to 10; 0 is no effect, 10 is complete control), Giant foxtail” value (giant foxtail; Rate 250 g/ha, Postemergence) was 2 and the “Cocklebur plant response rating” value (cocklebur; [2]) was 0. For the same compound, the “Cocklebur plant response rating” value (cocklebur; [4]) was 0, the “Cocklebur plant response rating” value (cocklebur; [5]) was 0 and the “Cocklebur plant response rating” value (cocklebur; [6]) was 0. The “Cocklebur plant response rating” value (cocklebur; [7]) was 0, the “Plant response rating (0 to 10; 0 is no effect, 10 is complete control), Cocklebur” value (cocklebur; Rate 250 g/ha, Postemergence) was 0 and the “Morningglory plant response rating” value (morningglory; [1]) was 0. For the same compound, the “Morningglory plant response rating” value (morningglory; [2]) was 0, the “Morningglory plant response rating” value (morningglory; [3]) was 3 and the “Morningglory plant response rating” value (morningglory; [4]) was 5. For the same compound, the “Morningglory plant response rating” value (morningglory; [5]) was 6, the “Morningglory plant response rating” value (morningglory; [6]) was 6 and the “Morningglory plant response rating” value (morningglory; [7]) was 0. The “Plant response rating (0 to 10; 0 is no effect, 10 is complete control), Morningglory” value (morningglory; Rate 250 g/ha, Postemergence) was 7.
